Test results: paper PMC6017444, “Effects of Lysozyme on the Activity of Ionic of Fluoroquinolone Species” (Molecules : A Journal of Synthetic Chemistry and Natural …, 2018)

Molecular target: T1, lysozyme (Lyz) from chicken egg white (Gallus gallus, UniProt P00698)
T1 construct: native mature protein from egg white (signal peptide removed), 129 residues, four disulfides, commercial (Sigma-Aldrich), used without further purification
Test: quenching of ligand fluorescence by protein (excitation […] nm), Stern-Volmer, static
Conditions: pH 7.4, 298 K, 10 mM Trizma; zwitterionic species; KSV taken as binding constant

T1 sequence (P00698 19-147): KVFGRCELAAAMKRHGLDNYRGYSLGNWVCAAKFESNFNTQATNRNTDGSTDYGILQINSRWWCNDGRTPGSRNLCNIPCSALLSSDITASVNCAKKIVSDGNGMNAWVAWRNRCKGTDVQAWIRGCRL

Stern-Volmer binding constant (KSV)	SMILES
(0.27 ± 0.02) × 10^4 L mol^-1	C[C@H]1COc2c(N3CCN(C)CC3)c(F)cc3c(=O)c(C(=O)O)cn1c23 [Levofloxacin]
(1.80 ± 0.01) × 10^4 L mol^-1	O=C(O)c1cn(C2CC2)c2cc(N3CCNCC3)c(F)cc2c1=O [Ciprofloxacin, 1-cyclopropyl-6-fluoro-4-oxo-7-(piperazin-1-yl)-1,4-dihydroquinoline-3-carboxylic acid]
